Source: EP4793274A1, “SALT AND CRYSTAL FORM OF KIF18A INHIBITOR COMPOUND, PREPARATION METHOD THEREFOR AND USE THEREOF” (Hubei Bio-Pharmaceutical Industrial Technological Institute …, priority 2023, dated 2025)

How the values were obtained:
[1] = Dynamic solubility at 37 °C in H2O, SGF, FaSSIF and FeSSIF (HPLC concentration, pH of filtrate, XRPD of residual solid); type: physicochemical; settings: listed as Crystal form B of p-toluenesulfonate; for S: solubility: feeding concentration 10 mg/mL; for FC: crystal form change: XRPD of residual solid; for pH: pH of filtrate
Protocol: 0.82 mL of glacial acetic acid and 1.18 g of NaCl were added to a 100 mL volumetric flask and completely dissolved by addition of purified water.
The solubility of each sample in H2O, SGF, FaSSIF, and FeSSIF was determined at different time points (1 h, 2 h, 4 h, and 24 h). […] 137-156. […] Table C-2. Summary of dynamic solubility test results at 37 °C

[2] = Hygroscopicity by dynamic vapor sorption (DVS); type: physicochemical; settings: 25 °C/80% RH
Protocol: Dynamic vapor sorption (DVS) curves were acquired on a DVS IntrInsic from Surface Measurement Systems (SMS). The relative humidity at 25 °C was corrected with the deliquescence points of LiCl, Mg(NO3)2, and KCl. Table A-5. DVS test parameters
The percentage changes in mass of the samples when the humidity changed (0% RH to 95% RH) at a constant temperature of 25 °C were collected. 157-166.

[3] = Solid state stability (XRPD and HPLC purity); type: physicochemical
Excerpt: 167-171. […] Table C-3. Summary of solid state stability evaluation

[4] = Solubility at room temperature in water, SGF and FaSSIF (HPLC concentration, pH of filtrate, XRPD of residual solid); settings: listed as Crystal form B of p-toluenesulfonate; for S: solubility: feeding concentration 1 mg/mL; for pH: pH of filtrate
Protocol: 100 mg of NaCl and 50 mg of Triton X-100 were weighed into a 50 mL volumetric flask and then completely dissolved by addition of purified water. 816 µL of 1 M hydrochloric acid was added, and the pH was adjusted to 1.8 with 1 M hydrochloric acid or 1 M NaOH solution. The mixed solution was brought to the volume by addition of purified water.
340 mg of anhydrous NaH2PO4 and 620 mg of NaCl were weighed into a 100 mL volumetric flask, and then completely dissolved by addition of purified water. 55.44 µL of a 50% NaOH solution was then added, and the pH was adjusted to 6.5 with 1 M hydrochloric acid or 1 M NaOH solution. The mixed solution was brought to the volume by addition of purified water. Subsequently, 110 mg of SIF powder was weighed into a 50 mL volumetric flask and completely dissolved in the solution described above, and the mixed solution was brought to the volume.
Solids at a feeding concentration of 1 mg/mL (calculated based on free crystal form) were rotationally mixed with corresponding vehicles at room temperature. […] After sampling at each time point, the samples were centrifuged (at 10000 rpm) and filtered (through a 0.22 µm PTFE filter head), the HPLC concentrations and pH values of the filtrates were determined, and the centrifuged solid samples were subjected to XRPD analysis.

[5] = 80 °C/sealed, 1 day, listed as Crystal form B of p-toluenesulfonate

Question: Which “S: solubility” value ([1]; FaSSIF, 1 h, 60 min) does the source give for Cc1cc(-c2cnn(-c3ccc(NS(=O)(=O)CCO)cc3N3CCC4(CC3)CC4)c2)nc(N2CCC(F)(F)CC2)n1 [crystal form B of the p-toluenesulfonate] here?
Answer: 61.4 µg/mL

Question: What about the “S: solubility” value ([1]; FaSSIF, 2 h, 120 min) of the same molecule?
Answer: 51.7 µg/mL

Question: And the “S: solubility” value ([1]; FaSSIF, 4 h, 240 min)?
Answer: 22.2 µg/mL

Question: And the “S: solubility” value ([1]; FaSSIF, 24 h, 1440 min)?
Answer: 16.3 µg/mL

Question: And the “S: solubility” value ([1]; FeSSIF, 1 h, 60 min)?
Answer: 182.8 µg/mL

Question: And the “S: solubility” value ([1]; FeSSIF, 2 h, 120 min)?
Answer: 166.5 µg/mL

Question: What about the “S: solubility” value ([1]; FeSSIF, 4 h, 240 min) of the same molecule?
Answer: 159.9 µg/mL

Question: What about the “S: solubility” value ([1]; FeSSIF, 24 h, 1440 min) of the same molecule?
Answer: 81.4 µg/mL

Question: And the “S: solubility” value ([1]; H2O, 1 h, 60 min)?
Answer: 2.7 µg/mL

Question: And the “S: solubility” value ([1]; H2O, 2 h, 120 min)?
Answer: 2.5 µg/mL

Question: What about the “S: solubility” value ([1]; H2O, 4 h, 240 min) of the same molecule?
Answer: 1.9 µg/mL

Question: What about the “S: solubility” value ([1]; H2O, 24 h, 1440 min) of the same molecule?
Answer: 1.5 µg/mL

Question: What about the “S: solubility” value ([1]; SGF, 1 h, 60 min) of the same molecule?
Answer: 56.8 µg/mL

Question: And the “S: solubility” value ([1]; SGF, 2 h, 120 min)?
Answer: 45.6 µg/mL

Question: And the “S: solubility” value ([1]; SGF, 4 h, 240 min)?
Answer: 23.3 µg/mL

Question: What about the “S: solubility” value ([1]; SGF, 24 h, 1440 min) of the same molecule?
Answer: 18.1 µg/mL

Question: What about the “FC: crystal form change” value ([1]; FaSSIF, 1 h) of the same molecule?
Answer: Yes

Question: What about the “FC: crystal form change” value ([1]; FaSSIF, 2 h) of the same molecule?
Answer: Yes

Question: What about the “FC: crystal form change” value ([1]; FaSSIF, 4 h) of the same molecule?
Answer: Yes

Question: What about the “FC: crystal form change” value ([1]; FaSSIF, 24 h) of the same molecule?
Answer: Yes

Question: What about the “FC: crystal form change” value ([1]; FeSSIF, 1 h) of the same molecule?
Answer: Yes

Question: And the “FC: crystal form change” value ([1]; FeSSIF, 2 h)?
Answer: Yes

Question: What about the “FC: crystal form change” value ([1]; FeSSIF, 4 h) of the same molecule?
Answer: Yes

Question: What about the “FC: crystal form change” value ([1]; FeSSIF, 24 h) of the same molecule?
Answer: Yes

Question: What about the “FC: crystal form change” value ([1]; H2O, 1 h) of the same molecule?
Answer: Yes

Question: And the “FC: crystal form change” value ([1]; H2O, 2 h)?
Answer: Yes

Question: And the “FC: crystal form change” value ([1]; H2O, 4 h)?
Answer: Yes

Question: And the “FC: crystal form change” value ([1]; H2O, 24 h)?
Answer: Yes

Question: And the “FC: crystal form change” value ([1]; SGF, 1 h)?
Answer: Yes

Question: And the “FC: crystal form change” value ([1]; SGF, 2 h)?
Answer: Yes

Question: What about the “FC: crystal form change” value ([1]; SGF, 4 h) of the same molecule?
Answer: Yes

Question: And the “FC: crystal form change” value ([1]; SGF, 24 h)?
Answer: Yes

Question: What about the pH ([1]; FaSSIF, 1 h) of the same molecule?
Answer: 2.92

Question: And the pH ([1]; FaSSIF, 2 h)?
Answer: 2.84

Question: And the pH ([1]; FaSSIF, 4 h)?
Answer: 2.74

Question: And the pH ([1]; FaSSIF, 24 h)?
Answer: 2.68

Question: And the pH ([1]; FeSSIF, 1 h)?
Answer: 4.68

Question: What about the pH ([1]; FeSSIF, 2 h) of the same molecule?
Answer: 4.66

Question: And the pH ([1]; FeSSIF, 4 h)?
Answer: 4.68

Question: And the pH ([1]; FeSSIF, 24 h)?
Answer: 4.74

Question: What about the pH ([1]; H2O, 1 h) of the same molecule?
Answer: 2.17

Question: What about the pH ([1]; H2O, 2 h) of the same molecule?
Answer: 2.17

Question: And the pH ([1]; H2O, 4 h)?
Answer: 2.09

Question: And the pH ([1]; H2O, 24 h)?
Answer: 1.95

Question: And the pH ([1]; SGF, 1 h)?
Answer: 1.64

Question: What about the pH ([1]; SGF, 2 h) of the same molecule?
Answer: 1.63

Question: And the pH ([1]; SGF, 4 h)?
Answer: 1.60

Question: And the pH ([1]; SGF, 24 h)?
Answer: 1.59

Question: What about the vapor sorption values [2] of the same molecule?
Answer: 0.171%

Question: What about the “HPLC results Relative to starting (%)” value ([3]; 25 °C/60% RH/open, 1 week) of the same molecule?
Answer: 100.0%

Question: What about the “HPLC results Purity (area%)” value ([3]; 25 °C/60% RH/open, 1 week, listed as Crystal form B of p-toluenesulfonate) of the same molecule?
Answer: 98.27 area%

Question: And the “HPLC results Relative to starting (%)” value ([3]; 40 °C/75% RH/open, 1 week)?
Answer: 100.0%

Question: What about the “HPLC results Purity (area%)” value ([3]; 40 °C/75% RH/open, 1 week, listed as Crystal form B of p-toluenesulfonate) of the same molecule?
Answer: 98.25 area%

Question: What about the “HPLC results Purity (area%)” value [3, 5] of the same molecule?
Answer: 98.28 area%

Question: What about the “HPLC results Relative to starting (%)” value [3, 5] of the same molecule?
Answer: 100.0%

Question: What about the “HPLC results Purity (area%)” value ([3]; Starting, listed as Crystal form B of p-toluenesulfonate) of the same molecule?
Answer: 98.28 area%

Question: What about the Crystal form ([3]; XRPD after 25 °C/60% RH/open, 1 week, listed as Crystal form B of p-toluenesulfonate) of the same molecule?
Answer: Crystal form B of p-toluenesulfonate

Question: What about the Crystal form ([3]; XRPD after 40 °C/75% RH/open, 1 week, listed as Crystal form B of p-toluenesulfonate) of the same molecule?
Answer: Crystal form B of p-toluenesulfonate

Question: What about the Crystal form ([3]; XRPD after 80 °C/sealed, 1 day, listed as Crystal form B of p-toluenesulfonate) of the same molecule?
Answer: Crystal form B of p-toluenesulfonate

Question: What about the “S: solubility” value ([4]; FaSSIF, 2 h, 120 min) of the same molecule?
Answer: 85.8 µg/mL

Question: And the “S: solubility” value ([4]; FaSSIF, 24 h, 1440 min)?
Answer: 37.8 µg/mL

Question: And the “S: solubility” value ([4]; H2O, 24 h, 1440 min)?
Answer: 0.1 µg/mL

Question: What about the “S: solubility” value ([4]; SGF, 2 h, 120 min) of the same molecule?
Answer: 41.3 µg/mL

Question: And the “S: solubility” value ([4]; SGF, 24 h, 1440 min)?
Answer: 19.7 µg/mL

Question: What about the pH ([4]; FaSSIF, 2 h) of the same molecule?
Answer: 6.5

Question: What about the pH ([4]; FaSSIF, 24 h) of the same molecule?
Answer: 6.4

Question: What about the pH ([4]; H2O, 2 h) of the same molecule?
Answer: 3.4

Question: What about the pH ([4]; H2O, 24 h) of the same molecule?
Answer: 2.8

Question: And the pH ([4]; SGF, 2 h)?
Answer: 1.9

Question: What about the pH ([4]; SGF, 24 h) of the same molecule?
Answer: 1.8
